Data taken from patent US11168073B2, “3,3-difluoroallylamines or salts thereof and pharmaceutical compositions comprising the same” (YUHAN CORPORATION, priority 2018, dated 2021).
Where a name gives a salt, the structure may show the parent alone. Read-outs that look alike come from different tables or passages of the source.

Legend:
Type in all cases: biochemical
recombinant human VAP-1 = biological target: T1, recombinant human VAP-1 (Homo sapiens, UniProt Q16853); test: Activity evaluation on recombinant human VAP-1 (Amplex Red/HRP-coupled hydrogen peroxide assay, benzylamine substrate); settings: read-out: Inhibitory Activity (IC50, nM) human VAP-1
T1 construct: purchased R&D systems
T1 sequence (Q16853 1-763): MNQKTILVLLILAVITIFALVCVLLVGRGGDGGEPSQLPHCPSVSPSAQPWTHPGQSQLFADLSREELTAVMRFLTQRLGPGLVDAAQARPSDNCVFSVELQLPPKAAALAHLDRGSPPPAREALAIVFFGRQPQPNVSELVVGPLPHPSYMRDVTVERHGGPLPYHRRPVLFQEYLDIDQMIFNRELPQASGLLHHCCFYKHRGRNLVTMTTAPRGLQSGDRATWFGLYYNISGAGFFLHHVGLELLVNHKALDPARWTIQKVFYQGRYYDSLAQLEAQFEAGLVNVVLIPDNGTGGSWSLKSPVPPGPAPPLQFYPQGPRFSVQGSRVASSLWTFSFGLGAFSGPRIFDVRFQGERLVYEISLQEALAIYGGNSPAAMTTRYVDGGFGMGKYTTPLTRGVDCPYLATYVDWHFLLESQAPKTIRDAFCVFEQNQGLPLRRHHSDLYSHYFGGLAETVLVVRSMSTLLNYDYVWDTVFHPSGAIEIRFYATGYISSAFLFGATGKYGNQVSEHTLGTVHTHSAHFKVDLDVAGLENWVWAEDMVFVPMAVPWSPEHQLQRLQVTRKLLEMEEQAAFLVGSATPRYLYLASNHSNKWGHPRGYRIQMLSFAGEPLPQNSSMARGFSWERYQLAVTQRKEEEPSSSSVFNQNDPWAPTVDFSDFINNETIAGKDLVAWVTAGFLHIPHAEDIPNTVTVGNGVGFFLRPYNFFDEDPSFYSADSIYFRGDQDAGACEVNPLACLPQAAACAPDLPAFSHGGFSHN
Procedure, shortened: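 Hydrogen peroxide from benzylamine (1 mM) oxidation by human recombinant VAP-1 detected via HRP-coupled Amplex Red (200 uM) fluorescence, kinetic over 1–2 h. Enzyme and compound preincubated 30 min at 37 °C, pH 7.4 phosphate; 8-point dose response, signal-rate decrease versus DMSO control fitted to four-parameter logistic for IC50.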

[1] = biological target: T2, recombinant human MAO-A (monoamine oxidase-A) (Homo sapiens, UniProt P21397); test: Activity evaluation on recombinant human MAO-A (Amplex Red/HRP-coupled assay, 0.5 mM tyramine substrate); settings: read-out: Inhibitory Activity (IC50, nM) MAO-A
T2 construct: purchased Sigma-Aldrich
T2 sequence (P21397 1-527): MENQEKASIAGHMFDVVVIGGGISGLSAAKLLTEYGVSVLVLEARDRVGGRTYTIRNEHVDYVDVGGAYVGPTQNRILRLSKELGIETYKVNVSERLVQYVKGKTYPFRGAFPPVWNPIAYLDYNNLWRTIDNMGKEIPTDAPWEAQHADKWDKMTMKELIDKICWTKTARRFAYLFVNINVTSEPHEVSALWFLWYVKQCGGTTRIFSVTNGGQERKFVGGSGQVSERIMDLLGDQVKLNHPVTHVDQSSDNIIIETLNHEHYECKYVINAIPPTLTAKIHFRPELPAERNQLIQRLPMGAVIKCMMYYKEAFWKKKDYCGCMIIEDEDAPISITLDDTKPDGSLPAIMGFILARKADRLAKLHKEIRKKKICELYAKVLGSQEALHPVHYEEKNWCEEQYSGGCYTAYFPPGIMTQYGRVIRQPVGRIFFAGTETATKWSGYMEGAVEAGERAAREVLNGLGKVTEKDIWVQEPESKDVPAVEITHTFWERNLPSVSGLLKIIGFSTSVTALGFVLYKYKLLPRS
Procedure, shortened: (§1)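 Each oxidase is tested with its own substrate: MAO-A with 0.5 mM tyramine, MAO-B with 1 mM benzylamine, DAO with 1 mM putrescine. After 30 min enzyme-compound preincubation at 37 °C, Amplex Red (200 uM) plus HRP (1 U/mL) reports H2O2 as fluorescence; IC50 is fitted from eight-point curves.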

[2] = biological target: T3, recombinant human MAO-B (monoamine oxidase-B) (Homo sapiens, UniProt P27338); test: Activity evaluation on recombinant human MAO-B (Amplex Red/HRP-coupled assay, 1 mM benzylamine substrate); settings: read-out: Inhibitory Activity (IC50, nM) MAO-B
T3 construct: purchased Sigma-Aldrich
T3 sequence (P27338 1-520): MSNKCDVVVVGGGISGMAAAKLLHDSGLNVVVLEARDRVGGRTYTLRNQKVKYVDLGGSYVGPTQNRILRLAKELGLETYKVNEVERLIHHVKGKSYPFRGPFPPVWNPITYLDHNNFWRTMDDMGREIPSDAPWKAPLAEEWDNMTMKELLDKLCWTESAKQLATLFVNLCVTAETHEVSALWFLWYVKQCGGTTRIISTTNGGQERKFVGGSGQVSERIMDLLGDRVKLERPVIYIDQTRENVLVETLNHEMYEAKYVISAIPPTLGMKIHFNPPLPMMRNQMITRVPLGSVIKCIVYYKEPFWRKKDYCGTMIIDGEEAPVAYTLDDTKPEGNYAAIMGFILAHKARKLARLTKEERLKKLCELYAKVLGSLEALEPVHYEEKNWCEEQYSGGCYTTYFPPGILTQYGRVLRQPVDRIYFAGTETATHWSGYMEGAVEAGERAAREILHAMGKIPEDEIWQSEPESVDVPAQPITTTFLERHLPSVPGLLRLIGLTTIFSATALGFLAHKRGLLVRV
Procedure, shortened: as §1

[3] = biological target: T4, recombinant human DAO (diamine oxidase) (Homo sapiens, UniProt P19801); test: Activity evaluation on recombinant human DAO (Amplex Red/HRP-coupled assay, 1 mM putrescine substrate); settings: read-out: Inhibitory Activity (IC50, nM) DAO
T4 construct: purchased R&D systems
T4 sequence (P19801 20-751): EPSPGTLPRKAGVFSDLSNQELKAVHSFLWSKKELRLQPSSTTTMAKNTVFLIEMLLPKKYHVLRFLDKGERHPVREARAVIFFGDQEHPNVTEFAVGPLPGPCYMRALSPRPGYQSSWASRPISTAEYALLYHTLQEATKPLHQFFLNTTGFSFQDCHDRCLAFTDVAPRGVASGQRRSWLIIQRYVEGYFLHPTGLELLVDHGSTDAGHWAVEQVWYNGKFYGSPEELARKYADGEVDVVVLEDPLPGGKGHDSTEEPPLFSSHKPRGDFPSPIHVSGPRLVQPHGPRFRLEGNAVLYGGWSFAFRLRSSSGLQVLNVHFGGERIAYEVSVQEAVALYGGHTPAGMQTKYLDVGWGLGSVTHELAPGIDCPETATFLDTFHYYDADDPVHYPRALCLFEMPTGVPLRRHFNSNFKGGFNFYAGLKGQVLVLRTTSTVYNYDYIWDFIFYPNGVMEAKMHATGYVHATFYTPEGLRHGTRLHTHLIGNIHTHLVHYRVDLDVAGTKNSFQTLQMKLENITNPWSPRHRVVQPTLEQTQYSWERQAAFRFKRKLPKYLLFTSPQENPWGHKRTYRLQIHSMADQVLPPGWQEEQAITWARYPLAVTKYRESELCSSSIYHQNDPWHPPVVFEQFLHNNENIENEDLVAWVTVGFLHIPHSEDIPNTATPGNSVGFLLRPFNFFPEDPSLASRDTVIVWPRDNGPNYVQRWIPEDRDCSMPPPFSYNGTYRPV
Procedure, shortened: as §1

[4] = recombinant human VAP-1, 30 min preincubation at 37° C., 1 mM benzylamine
[5] = recombinant human VAP-1, benzylamine substrate

Row | SMILES | IC50 (recombinant human VAP-1; [4]) | IC50 ([1]; 0.5 mM tyramine) | IC50 ([2]; 1 mM benzylamine) | IC50 ([3]; 1 mM putrescine) | IC50 (recombinant human VAP-1; [5]) | IC50 ([1]; 0.5 mM tyramine substrate) | IC50 ([2]; 1 mM benzylamine substrate) | IC50 ([3]; 1 mM putrescine substrate)
1 | CS(=O)(=O)c1ccc(-c2cc(-n3cnn(CC(CN)=C(F)F)c3=O)ccn2)cc1 [Example 61, 2-[2-(aminomethyl)-3,3-difluoro-allyl]-4-[2-(4-methylsulfonylphenyl)-4-pyridyl]-1,2,4-triazol-3-one Trifluoroacetate] | 0.7 nM | > 100000 nM | 14000 nM | 19 nM |  |  |  | 
2 | NCC(Cn1ncn(-c2cccc(-c3ccc(C(F)(F)F)nc3)c2)c1=O)=C(F)F [Example 19, 2-[2-(aminomethyl)-3,3-difluoro-allyl]-4-[3-[6-(trifluoromethyl)-3-pyridyl]phenyl]-1,2,4-triazol-3-one Trifluoroacetate] | 5.3 nM | > 100000 nM | > 10000 nM | 240 nM |  |  |  | 
3 | Cc1cc(-n2cnn(CC(CN)=C(F)F)c2=O)cnc1-c1ccc(C(F)(F)F)nc1 [Example 77, 2-[2-(aminomethyl)-3,3-difluoro-allyl]-4-[5-methyl-6-[6-(trifluoromethyl)-3-pyridyl]-3-pyridyl]-1,2,4-triazol-3-one Trifluoroacetate] | 1 nM | > 100000 nM | 1600 nM | 10 nM |  |  |  | 
4 | CS(=O)(=O)c1ccc(-c2cccc(Cn3cnn(CC(CN)=C(F)F)c3=O)c2)cc1 [Example 272, 2-[2-(aminomethyl)-3,3-difluoro-allyl]-4-[[3-(4-methylsulfonylphenyl)phenyl]methyl]-1,2,4-triazol-3-one Trifluoroacetate] |  |  |  |  | 3.2 nM | > 100000 nM | 23800 nM | 4330 nM
5 | NCC(Cn1ncn(Cc2ccc(C#Cc3cnc4c(c3)NCCO4)s2)c1=O)=C(F)F [Example 166, 2-[2-(aminomethyl)-3,3-difluoro-allyl]-4-[[5-[2-(2,3-dihydro-1H-pyrido[2,3-b][1,4]oxazin-7-yl)ethynyl]-2-thienyl]methyl]-1,2,4-triazol-3-one Ditrifluoroacetate] | 0.9 nM | > 10000 nM | > 10000 nM | > 10000 nM |  |  |  | 
6 | NCC(Cn1ncn(-c2cnc(-c3ccc(C(F)(F)F)nc3)cn2)c1=O)=C(F)F [Example 91, 2-[2-(aminomethyl)-3,3-difluoro-allyl]-4-[5-[6-(trifluoromethyl)-3-pyridyl]pyrazin-2-yl]-1,2,4-triazol-3-one Trifluoroacetate] | 0.5 nM | > 100000 nM | 200 nM | 1 nM |  |  |  | 
7 | NCC(Cn1ncn(Cc2cc(Br)cs2)c1=O)=C(F)F [Example 98, 2-[2-(aminomethyl)-3,3-difluoro-allyl]-4-[(4-bromo-2-thienyl)methyl]-1,2,4-triazol-3-one Trifluoroacetate] | 23 nM | > 100000 nM | 13900 nM | 18600 nM |  |  |  | 
8 | Cc1cc(-c2ccc(C(F)(F)F)nc2)sc1Cn1cnn(CC(CN)=C(F)F)c1=O [Example 156, 2-[2-(aminomethyl)-3,3-difluoro-allyl]-4-[[3-methyl-5-[6-(trifluoromethyl)-3-pyridyl]-2-thienyl]methyl]-1,2,4-triazol-3-one Trifluoroacetate] | 3.2 nM | > 100000 nM | 17000 nM | 9100 nM |  |  |  | 
9 | Cc1cc(-c2cccc(Cn3cnn(CC(CN)=C(F)F)c3=O)c2)cc2c1NC(=O)CC2 [Example 275, 6-[3-[[1-[2-(aminomethyl)-3,3-difluoro-allyl]-5-oxo-1,2,4-triazol-4-yl]methyl]phenyl]-8-methyl-3,4-dihydro-1H-quinolin-2-one Trifluoroacetate] |  |  |  |  | 0.9 nM | > 100000 nM | 25400 nM | 5160 nM
10 | Cc1cc(C#Cc2cnc3c(c2)NC(=O)CO3)cnc1-n1cnn(CC(CN)=C(F)F)c1=O [Example 247, 7-[2-[6-[1-[2-(aminomethyl)-3,3-difluoro-allyl]-5-oxo-1,2,4-triazol-4-yl]-5-methyl-3-pyridyl]ethynyl]-1H-pyrido[2,3-b][1,4]oxazin-2-one Trifluoroacetate] |  |  |  |  | 0.3 nM | > 100000 nM | > 100000 nM | 43000 nM
